From patent publication US8846698B2, “Pyrrolo[2,3-d]pyrimidine tropomysin-related kinase inhibitors” (Pfizer Limited, priority 2011, dated 2014)

Molecular target: TRKA (Homo sapiens (Human), UniProt P04629)
Experiment: Isolated TRK enzyme assay (HTRF KinEASE-TK), TRKA
Assay type: biochemical
Settings: read-out: Trka enzyme (IC50)

TRKA, sequence (P04629 441-796): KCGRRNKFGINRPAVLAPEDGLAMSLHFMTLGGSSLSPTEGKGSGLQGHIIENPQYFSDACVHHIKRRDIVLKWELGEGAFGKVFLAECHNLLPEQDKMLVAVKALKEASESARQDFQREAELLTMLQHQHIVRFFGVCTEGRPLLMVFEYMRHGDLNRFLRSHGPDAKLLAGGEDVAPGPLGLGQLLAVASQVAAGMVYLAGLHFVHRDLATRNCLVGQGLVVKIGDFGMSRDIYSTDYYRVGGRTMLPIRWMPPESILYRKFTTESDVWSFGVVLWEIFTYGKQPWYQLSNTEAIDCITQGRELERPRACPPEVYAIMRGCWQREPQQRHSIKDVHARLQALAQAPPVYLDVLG

| IC50 | Structure (SMILES) |
| --- | --- |
| 1030 nM | CC(C)n1cc(C(=O)c2cncc(NC(=O)Cc3cncc(OC4CC4)c3)c2)c2cncnc21 [Example 91, 2-[5-(cyclopropyloxy)pyridin-3-yl]-N-{5-[(7-isopropyl-7H-pyrrolo[2,3-d]pyrimidin-5-yl)carbonyl]pyridin-3-yl}acetamide] |
| 41.5 nM | CC(C)n1cc(C(=O)c2cncc(NC(=O)Cc3ccc4c(c3)CCO4)c2)c2cncnc21 [Example 92, 2-(2,3-dihydro-1-benzofuran-5-yl)-N-{5-[(7-isopropyl-7H-pyrrolo[2,3-d]pyrimidin-5-yl)carbonyl]pyridin-3-yl}acetamide] |
| 12.4 nM | CC(C)n1cc(C(=O)c2cncc(NC(=O)Cn3cc4ccccc4n3)c2)c2cncnc21 [Example 93, 2-(2H-indazol-2-yl)-N-{5-[(7-isopropyl-7H-pyrrolo[2,3-d]pyrimidin-5-yl)carbonyl]pyridin-3-yl}acetamide] |
| 54.8 nM | CC(C)n1cc(C(=O)c2cncc(NC(=O)Cn3cc4cc(F)ccc4n3)c2)c2cncnc21 [Example 94, 2-(5-fluoro-2H-indazol-2-yl)-N-{5-[(7-isopropyl-7H-pyrrolo[2,3-d]pyrimidin-5-yl)carbonyl]pyridin-3-yl}acetamide] |
| 3.95 nM | CC(C)n1cc(C(=O)c2cncc(NC(=O)Cn3ncc4cc(F)ccc43)c2)c2cncnc21 [Example 95, 2-(5-fluoro-1H-indazol-1-yl)-N-{5-[(7-isopropyl-7H-pyrrolo[2,3-d]pyrimidin-5-yl)carbonyl]pyridin-3-yl}acetamide] |
| 5.45 nM | Cc1cc(C(F)(F)F)nn1CC(=O)Nc1cncc(C(=O)c2cn(C(C)C)c3ncncc23)c1 [Example 96, N-{5-[(7-isopropyl-7H-pyrrolo[2,3-d]pyrimidin-5-yl)carbonyl]pyridin-3-yl}-2-[5-methyl-3-(trifluoromethyl)-1H-pyrazol-1-yl]acetamide] |
| 4.86 nM | CC(C)n1cc(C(=O)c2cncc(NC(=O)Cn3ccc(C(F)(F)F)n3)c2)c2cncnc21 [Example 97, N-{5-[(7-isopropyl-7H-pyrrolo[2,3-d]pyrimidin-5-yl)carbonyl]pyridin-3-yl}-2-[3-(trifluoromethyl)-1H-pyrazol-1-yl]acetamide] |
| 5.16 nM | CC(C)n1cc(C(=O)c2cncc(NC(=O)Cc3ccc(Cl)cn3)c2)c2cncnc21 [Example 98, 2-(5-chloropyridin-2-yl)-N-{5-[(7-isopropyl-7H-pyrrolo[2,3-d]pyrimidin-5-yl)carbonyl]pyridin-3-yl}acetamide] |
| 25.6 nM | CC(C)n1cc(C(=O)c2cncc(NC(=O)Cc3ccc4cccnc4c3)c2)c2cncnc21 [Example 100, N-{5-[(7-isopropyl-7H-pyrrolo[2,3-d]pyrimidin-5-yl)carbonyl]pyridin-3-yl}-2-quinolin-7-ylacetamide] |
| 204 nM | CC(C)n1cc(C(=O)c2cncc(NC(=O)Cn3cc4cccc(F)c4n3)c2)c2cncnc21 [Example 101, 2-(7-fluoro-2H-indazol-2-yl)-N-{5-[(7-isopropyl-7H-pyrrolo[2,3-d]pyrimidin-5-yl)carbonyl]pyridin-3-yl}acetamide] |
| 42.9 nM | CC(C)n1cc(C(=O)c2cncc(NC(=O)Cn3ncc4cccnc43)c2)c2cncnc21 [Example 102, N-{5-[(7-isopropyl-7H-pyrrolo[2,3-d]pyrimidin-5-yl)carbonyl]pyridin-3-yl}-2-(1H-pyrazolo[3,4-b]pyridin-1-yl)acetamide] |
| 41.7 nM | CC(C)n1cc(C(=O)c2cncc(NC(=O)Cn3ncc4ccccc43)c2)c2cncnc21 [Example 103, 2-(1H-indazol-1-yl)-N-{5-[(7-isopropyl-7H-pyrrolo[2,3-d]pyrimidin-5-yl)carbonyl]pyridin-3-yl}acetamide] |
| 20 nM | Cc1cc(C(C)C)nn1CC(=O)Nc1cncc(C(=O)c2cn(C(C)C)c3ncncc23)c1 [Example 104, 2-(3-isopropyl-5-methyl-1H-pyrazol-1-yl)-N-{5-[(7-isopropyl-7H-pyrrolo[2,3-d]pyrimidin-5-yl)carbonyl]pyridin-3-yl}acetamide] |
| 25.6 nM | CC(C)c1cn(CC(=O)Nc2cncc(C(=O)c3cn(C(C)C)c4ncncc34)c2)nn1 [Example 105, N-{5-[(7-isopropyl-7H-pyrrolo[2,3-d]pyrimidin-5-yl)carbonyl]pyridin-3-yl}-2-(4-isopropyl-1H-1,2,3-triazol-1-yl)acetamide] |
| 14.8 nM | CC(C)n1cc(C(=O)c2cncc(NC(=O)Cn3cc(C(F)(F)F)nn3)c2)c2cncnc21 [Example 106, N-{5-[(7-isopropyl-7H-pyrrolo[2,3-d]pyrimidin-5-yl)carbonyl]pyridin-3-yl}-2-[4-(trifluoromethyl)-1H-1,2,3-triazol-1-yl]acetamide] |
| 12.3 nM | CC(C)n1cc(C(=O)c2cncc(NC(=O)Cn3ncc4cccc(F)c43)c2)c2cncnc21 [Example 107, 2-(7-fluoro-1H-indazol-1-yl)-N-{5-[(7-isopropyl-7H-pyrrolo[2,3-d]pyrimidin-5-yl)carbonyl]pyridin-3-yl}acetamide] |
| 7.63 nM | CC(C)n1cc(C(=O)c2cncc(NC(=O)Cn3nc4ccccc4n3)c2)c2cncnc21 [Example 108, 2-(2H-benzotriazol-2-yl)-N-{5-[(7-isopropyl-7H-pyrrolo[2,3-d]pyrimidin-5-yl)carbonyl]pyridin-3-yl}acetamide] |

| IC50 | Structure (SMILES) |
| --- | --- |
| 65.1 nM | Cc1[nH]c2c(F)cccc2c1CC(=O)Nc1cncc(C(=O)c2cn(C(C)C)c3ncncc23)c1 [Example 109, 2-(7-fluoro-2-methyl-1H-indol-3-yl)-N-{5-[(7-isopropyl-7H-pyrrolo[2,3-d]pyrimidin-5-yl)carbonyl]pyridin-3-yl}acetamide] |
| 36.5 nM | Cc1[nH]c2ccc(Cl)cc2c1CC(=O)Nc1cncc(C(=O)c2cn(C(C)C)c3ncncc23)c1 [Example 110, 2-(5-chloro-2-methyl-1H-indol-3-yl)-N-{5-[(7-isopropyl-7H-pyrrolo[2,3-d]pyrimidin-5-yl)carbonyl]pyridin-3-yl}acetamide] |
| 46.2 nM | CC(C)n1cc(C(=O)c2cncc(NC(=O)Cn3ccc4ccccc43)c2)c2cncnc21 [Example 111, 2-(1H-indol-1-yl)-N-{5-[(7-isopropyl-7H-pyrrolo[2,3-d]pyrimidin-5-yl)carbonyl]pyridin-3-yl}acetamide] |
| 57.8 nM | CC(C)n1ncc(CC(=O)Nc2cncc(C(=O)c3cn(C(C)C)c4ncncc34)c2)c1C(F)(F)F [Example 112, N-{5-[(7-isopropyl-7H-pyrrolo[2,3-d]pyrimidin-5-yl)carbonyl]pyridin-3-yl}-2-[1-isopropyl-5-(trifluoromethyl)-1H-pyrazol-4-yl]acetamide] |
| 300 nM | Cc1ccn(CC(=O)Nc2cncc(C(=O)c3cn(C(C)C)c4ncncc34)c2)n1 [Example 113, N-{5-[(7-isopropyl-7H-pyrrolo[2,3-d]pyrimidin-5-yl)carbonyl]pyridin-3-yl}-2-(3-methyl-1H-pyrazol-1-yl)acetamide] |
| 976 nM | CC(C)n1cc(C(=O)c2cncc(NC(=O)Cn3cccn3)c2)c2cncnc21 [Example 114, N-{5-[(7-isopropyl-7H-pyrrolo[2,3-d]pyrimidin-5-yl)carbonyl]pyridin-3-yl}-2-(1H-pyrazol-1-yl)acetamide] |
| 102 nM | Cc1cc(C)n(CC(=O)Nc2cncc(C(=O)c3cn(C(C)C)c4ncncc34)c2)n1 [Example 115, 2-(3,5-dimethyl-1H-pyrazol-1-yl)-N-{5-[(7-isopropyl-7H-pyrrolo[2,3-d]pyrimidin-5-yl)carbonyl]pyridin-3-yl}acetamide] |
| 103 nM | Cc1[nH]c2ccccc2c1CC(=O)Nc1cncc(C(=O)c2cn(C(C)C)c3ncncc23)c1 [Example 116, N-{5-[(7-isopropyl-7H-pyrrolo[2,3-d]pyrimidin-5-yl)carbonyl]pyridin-3-yl}-2-(2-methyl-1H-indol-3-yl)acetamide] |
| 68.4 nM | COc1ccc2[nH]cc(CC(=O)Nc3cncc(C(=O)c4cn(C(C)C)c5ncncc45)c3)c2c1 [Example 117, N-{5-[(7-isopropyl-7H-pyrrolo[2,3-d]pyrimidin-5-yl)carbonyl]pyridin-3-yl}-2-(5-methoxy-1H-indol-3-yl)acetamide] |
| 2550 nM | CC(C)n1cc(C(=O)c2cncc(NC(=O)Cc3cccnc3)c2)c2cncnc21 [Example 118, N-{5-[(7-isopropyl-7H-pyrrolo[2,3-d]pyrimidin-5-yl)carbonyl]pyridin-3-yl}-2-pyridin-3-ylacetamide] |
| 233 nM | CC(C)n1cc(C(=O)c2cncc(NC(=O)Cn3nnc4cc(Cl)ccc43)c2)c2cncnc21 [Example 119, 2-(5-chloro-1H-benzotriazol-1-yl)-N-{5-[(7-isopropyl-7H-pyrrolo[2,3-d]pyrimidin-5-yl)carbonyl]pyridin-3-yl}acetamide] |
| 53 nM | CC(C)n1cc(C(=O)c2cncc(NC(=O)Cn3ccc(-c4cccs4)n3)c2)c2cncnc21 [Example 120, N-{5-[(7-isopropyl-7H-pyrrolo[2,3-d]pyrimidin-5-yl)carbonyl]pyridin-3-yl}-2-[3-(2-thienyl)-1H-pyrazol-1-yl]acetamide] |
| 5200 nM | Cc1ccn2cc(CC(=O)Nc3cncc(C(=O)c4cn(C(C)C)c5ncncc45)c3)nc2n1 [Example 121, N-{5-[(7-isopropyl-7H-pyrrolo[2,3-d]pyrimidin-5-yl)carbonyl]pyridin-3-yl}-2-(7-methylimidazo[1,2-a]pyrimidin-2-yl)acetamide] |
| 5840 nM | Cc1nc(C)c2ncn(CC(=O)Nc3cncc(C(=O)c4cn(C(C)C)c5ncncc45)c3)c2n1 [Example 122, 2-(2,6-dimethyl-9H-purin-9-yl)-N-{5-[(7-isopropyl-7H-pyrrolo[2,3-d]pyrimidin-5-yl)carbonyl]pyridin-3-yl}acetamide] |
| 143 nM | CC(C)n1cc(C(=O)c2cncc(NC(=O)Cn3ncc4ccc([N+](=O)[O-])cc43)c2)c2cncnc21 [Example 123, N-{5-[(7-isopropyl-7H-pyrrolo[2,3-d]pyrimidin-5-yl)carbonyl]pyridin-3-yl}-2-(6-nitro-1H-indazol-1-yl)acetamide] |
| 244 nM | CC(C)n1cc(C(=O)c2cncc(NC(=O)Cc3nn(C)c4ccc(Cl)cc34)c2)c2cncnc21 [Example 124, 2-(5-chloro-1-methyl-1H-indazol-3-yl)-N-{5-[(7-isopropyl-7H-pyrrolo[2,3-d]pyrimidin-5-yl)carbonyl]pyridin-3-yl}acetamide] |
